For data set [1] the following is noted: cited from earlier work.
Data set [2] is described as follows: Stability of raw API, stability indicating HPLC method. The following applies: Sodium Fusidate compared with Fusidic acid, Tables 1 and 2. The data set is classed as physicochemical. An excerpt: In both studies the * Initial denotes the results of the samples tested at the time of receipt of the API from the supplier.

Here are results for two compounds from patent US20120035144A1 (APEX LABORATORIES PRIVATE LIMITED, priority 2009, published 2012).

Where a name gives a salt, the structure may show the parent alone.

In the case of `Clc1ccccc1C(c1ccccc1)(c1ccccc1)n1ccnc1` [Clotrimazole, 1-(o-Chloro-α,α-diphenylbenzyl)imidazole], the Protein binding entry in data set [1] is “about 90%”. As for `CC(=O)O[C@H]1C[C@@]2(C)[C@@H](C[C@@H](O)[C@H]3[C@@]4(C)CC[C@@H](O)[C@@H](C)[C@@H]4CC[C@@]32C)/C1=C(\CCC=C(C)C)C(=O)O` [Sodium Fusidate, 3μ,11μ,16β-Trihydroxy 29-nor-8μ,9β,13μ,14β-dammara-17(20)[10,21-cis], 24-dien-21-oic acid 16-acetate, sodium salt], the “stability as an API” value in data set [2] is reported as “more stable than Fusidic acid”.
